This is an account of results in patent publication US6828338B2, “Substituted polycyclic aryl and heteroaryl pyridines useful for selective inhibition of the coagulation cascade” (Pharmacia Corporation, priority 2000, dated 2004).

Some results are limits rather than exact numbers.

As a reminder, the IC50 is the concentration needed to halve the response being measured. Low readings indicate higher potency, high ones lower potency.

In this assay the target is T1, Human factor Xa (Homo sapiens, UniProt P00742).
T1 construct: leads from XII to XIIa to XIa to IXa and to the conversion of X to Xa; purchased Enzyme Research Laboratories, South Bend Ind
T1 sequence (P00742 235-488 limits assumed): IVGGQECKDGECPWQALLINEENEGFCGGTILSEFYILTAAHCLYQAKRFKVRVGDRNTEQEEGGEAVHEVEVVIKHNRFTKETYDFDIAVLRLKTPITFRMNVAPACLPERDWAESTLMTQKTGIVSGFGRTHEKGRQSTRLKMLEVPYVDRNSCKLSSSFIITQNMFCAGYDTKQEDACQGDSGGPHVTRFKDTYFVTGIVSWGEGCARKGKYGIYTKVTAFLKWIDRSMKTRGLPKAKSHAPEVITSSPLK
T1 sequence (P00742 41-179 limits assumed): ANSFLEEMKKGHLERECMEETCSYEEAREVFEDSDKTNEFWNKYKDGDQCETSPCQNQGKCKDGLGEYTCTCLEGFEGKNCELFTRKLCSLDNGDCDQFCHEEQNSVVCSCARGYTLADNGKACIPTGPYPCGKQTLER
In words: Xa Assay. Type of assay: biochemical. The protocol:
Human factor Xa (0.3 nM) and 0.15 mM N-a-Benzyloxycarbonyl-D-arginyl-L-glycyl-L-arginine-p-nitroaniline-dihydrochloride (S-2765) are added to a 96-well assay plate containing either inhibitor or buffer (50 mM Tris-HCl, pH 8.0, 100 mM NaCl, 0.1% BSA). The reaction, in a final volume of 100 ul is measured immediately at 405 nm to determine background absorbance. The plate is incubated at room temperature for 60 min, at which time the rate of hydrolysis of the substrate is measured by monitoring the reaction at 405 nm for the release of p-nitroaniline. Percent inhibition of Xa activity is calculated from OD405 nm value from the experimental and control sample.
Recombinant soluble TF, consisting of amino acids 1-219 of the mature protein sequence was expressed in E. coli and purified using a Mono Q Sepharose FPLC. Recombinant human VIIa was purchased from American Diagnostica, Greenwich Conn. and chromogenic substrate N-Methylsulfonyl-D-phe-gly-arg-p-nitroaniline was prepared by American Peptide Company, Inc., Sunnyvale, Calif. Factor Xa was obtained from Enzyme Research Laboratories, South Bend Ind., thrombin from Calbiochem, La Jolla, Calif., and trypsin and L-BAPNA from Sigma, St. Louis Mo. The chromogenic substrates S-2765 and S-2238 were purchased from Chromogenix, Sweden.

Consider `CC(C)Nc1ccc(/C=C/c2ccccc2)c(CC(=O)NCc2ccc(C(=N)N)cc2)[n+]1[O-]` [Example 12], for which the concentration for half-maximal inhibition (IC50) is above 100 µM. `CC(C)Nc1ccc(-c2cc(N)cc(N)c2)c(CC(=O)NCc2ccc(C(=N)N)cc2)[n+]1[O-]` [Example 7]: the IC50 was above 100 µM.
